Assay results from patent US20070032506A1, “CRYSTALLINE FORMS OF (2R-TRANS)-6-CHLORO-5[[4-[(4-FLUOROPHENYL)METHYL]-2,5-DIMETHYL-1-PIPERAZINYL]CARBONYL]-N,N, 1-TRIMETHYL-ALPHA-OXO-1H-INDOLE-3-ACETAMIDE MONOHYDROCHLORIDE” (priority 2005, published 2007).

Test: Dynamic Vapor Sorption analysis
Assay type: physicochemical
Conditions: humidity range ~21-70% Relative Humidity, Material recrystallized from isopropanol
Description: The results of the XRPD analysis are shown both in Table I above and in FIG. 2. Dynamic Vapor Sorption analysis of this same materials was also done. […] (2 moles of water per molecule of the Compound would be 6.15% water).

## C[C@@H]1CN(Cc2ccc(F)cc2)[C@@H](C)CN1C(=O)c1cc2c(C(=O)C(=O)N(C)C)cn(C)c2cc1Cl.Cl [Compound, (2R-trans)-6-chloro-5-[[4-[(4-fluorophenyl)methyl]-2,5-dimethyl-1-piperazinyl]carbonyl]-N,N, 1-trimethyl-alpha-oxo-1H-indole-3-acetamide monohydrochloride]
  water content (water weight gained): 6-7%
